row,melting point [°C],Structure (SMILES)
1,154 to 155,COc1ccccc1Cc1nc2ccccc2c(=O)n1CCO
2,128 to 131,CCN1C(=O)C(C)(C)C(=O)N(C)c2cc(CN(CCn3ccc4oc(C)cc4c3=O)Cc3ccnn3C)ccc21
3,148,Cc1nccc2c3ccc(OCc4cccc(F)c4)cc3n(Cc3cccc(F)c3)c12
4,85 to 86,CNC(=O)c1c(OC(C)C)c2cc(OC)ccc2n1C
5,248 to 250,Cc1ccc(C)n1CCNC(=O)Nc1ccc(C(=O)O)cc1
6,209 to 210,CCCCOc1c(CNC(=O)OC(C)(C)C)n(CC(C)C)c(=O)c2ccc(C(N)=NO)cc12
7,> 250,COc1cc2c(cc1Cl)NC(=O)C2=NNc1ccc(S(N)(=O)=O)cc1
8,261 to 264,CN1C(=O)Cc2cc(C3=NNC(=O)CC3)ccc21
9,197 to 205,Cn1cc(C(=O)NCc2ccc(Cl)cc2)c(=O)c2ccoc21
10,214 to 216,Cc1nc(-n2ccc(OCc3ccc(C(F)(F)F)o3)cc2=O)sc1C(=O)NCc1ccccc1
11,128 to 129,CCN(CC)C(=O)C(=O)Nc1cc(C)c(S(=O)(=O)C[N+](=O)[O-])c(C)c1
12,182 to 185,CCOC(=O)Cc1c(C(=O)O)c(C)cn1C
13,194 to 196,CCC1c2cccn2-c2cc(O)c(F)cc2N1S(=O)(=O)c1ccc(O)c(C)c1 (centres undefined)
14,129 to 131,Nc1cc(C(=O)CCCCCl)cc2c1OCC2
15,232 to 234,Cc1cc(C)c(Nc2nc(C)ncc2S(=O)(=O)c2ccc(-c3ccncc3)cc2)c(C)c1
16,81 to 82,Cc1cc(Cl)ccc1Cn1nc(OC(C)C)cc1CCCOc1nn(Cc2ccccc2)cc1CC(=O)O
17,259 to 262,CCn1ccc2nc(N3CCN(c4ncc5cc(OC)c(OC)cc5n4)CC3)ncc2c1=O
18,230 to 233,CC(=O)Nc1sc(-c2ccc(F)cc2)cc1C(N)=O

row,melting point [°C],Structure (SMILES)
1,190 to 191,CCc1cc(Oc2ccc(S(C)(=O)=O)nc2)cc2cc(C3=NCC(CC(N)=O)S3)[nH]c12 (centres undefined)
2,77.5 to 77.9,CCCCCCCC(=O)Oc1ccc(-c2ccc(C#N)cc2)cc1
3,125 to 131,CCCCCCCCNc1c(Nc2ccc(CC(C)NC[C@H](O)COc3cccc4[nH]c5ccccc5c34)cc2)c(=O)c1=O (some centres undefined)
4,261 to 264,O=c1[nH]c(=O)n(CCCN2CCN(C(c3ccccc3)c3ccccc3)CC2)c2ccccc12
5,84,Cc1c(Cl)cccc1S(=O)(=O)Nc1nc(CC(=O)N(C)C)cs1
6,173 to 174,CCn1c(C(=O)c2cc(C)cc(CCC#N)c2)c(C(C)C)c(=O)[nH]c1=O
7,172 to 173,CCOC(=O)C1=C(C)NC(C=O)=C(C(=O)OCC)C1c1cc([N+](=O)[O-])ccc1Cl (centres undefined)
8,109 to 110,CCC1(CC)OC(c2ccc(S(C)(=O)=O)cc2)=CC1=O
9,195 to 196,CCCCOc1c(CNC(=O)OC(C)(C)C)n(CC(C)C)c(=O)c2ccc(-c3nc(C(N)=O)cs3)cc12
10,95 to 96,CC(C)(C)OC(=O)Cn1c(C(=O)OCc2ccccc2)cc2ccccc21
11,249 to 253,CCN1CCN(c2ccnc3c(NC(=O)c4c(Cl)cccc4Cl)cccc23)C1=O
12,91 to 93,COc1ccc(C(=O)Cc2cc(OC)cc(Br)c2OC)cc1
13,159 to 160,CCCNC(=O)NS(=O)(=O)c1cc2c(cc1OC)OCCC2CNC(=O)c1cc(Cl)ccc1OC (centres undefined)
14,97 to 102,COc1cc(-c2nc(-c3ccc(N(C)C)cc3)c(C)o2)ccc1OC(C)=O
15,255 to 257,CC1=C(c2ccccc2)n2nc(C)c3c(=O)[nH]c(=S)n(c32)C1
16,93 to 98,CCCSc1csc(C(=O)OC)c1S(=O)(=O)NC(C)(C)C
17,286 to 287,CC1(C)CCC(C)(C)c2cc(NC(=O)c3ccc(C(=O)O)cc3O)ccc21

# Continued, compound first:
row,Structure (SMILES),melting point [°C]
1,O=[N+]([O-])c1cccc(Cn2c(-c3ccc4c(c3)OCO4)nc3ccccc32)c1,70.2 to 73
2,CC1ON(C)C(=O)C1=Cc1cc(C(C)(C)C)c(O)c(C(C)(C)C)c1 (centres undefined),147 to 150
3,COCCOCc1nn(C)c2c1N=C(c1ccc(-n3c(C)nc4cnccc43)cc1)CC(=O)N2C,142 to 144
4,Cc1c(O)c(=O)ccn1CCO,164 to 165
5,O=C1CN(c2cc(Oc3ccccc3)ccc2O)S(=O)(=O)N1,153 to 157
6,Cc1cc(-c2cccc(NC(=O)C3CCC3)c2)n2ncc(C(=O)c3cccs3)c2n1,121 to 123
7,COc1cccc(CCN2C(=O)c3ccccc3C2(O)c2ccncc2)c1 (centres undefined),190
8,CC1(c2ccccc2)CNC(=O)O1 (centres undefined),144 to 145
9,Cc1oc(-c2ccccc2)nc1COc1ccc(COc2nn(Cc3ccc(OCc4nc(-c5ccccc5)oc4C)cc3)cc2C=O)cc1,155 to 156
10,CC(=O)NC1CN(CCN2CCOCC2)S(=O)(=O)c2sc(S(N)(=O)=O)cc21 (centres undefined),110 to 112
11,O=C(COc1cccc(Cl)c1)NCCO[N+](=O)[O-],62 to 64
12,O=C(CNc1ccc(S(=O)(=O)O)cc1)c1ccccc1,> 300
13,COc1cccc(OC2CN([C@H]3CC[C@@H](c4cc5ccccc5[nH]4)CC3)C2)c1,126 to 127
14,Cc1cccc(C)c1NC1=NCCN1,155 to 156
15,CC(=O)C=Cc1c(C)c(C)c(C)c2c1OC(C)(C)C2,125
16,CNC(=O)c1ccc(C(=O)OC)cc1[N+](=O)[O-],155
17,O=C(Nc1ccc2c(c1)CSCC2)OCc1ccccc1,109 to 111
18,O=C(O)CNc1nccc(-c2nc(=O)c3ccccc3s2)n1,283 to 284
19,O=C(O)c1cn(C2CC2)c2c(CO)c(N3CCNCC3)c(F)cc2c1=O,149 to 152
20,CN1C(=O)CCC2=C1CCc1cccc(F)c12,75 to 76
21,CC(=O)NCC1CN(c2ccc(C(=O)c3cnc4n3CCS4)cc2)C(=O)O1 (centres undefined),259 to 260
22,Clc1ccc2nc(-c3ccccn3)nn2c1,118 to 119

row,Structure (SMILES),melting point [°C]
1,COc1cc(OC)nc(NC(=O)N=NS(=O)(=O)C2SCC(=O)N2C)n1 (centres undefined),200 to 201
2,CC(Oc1ccc(NC(=O)NC(=O)c2ccccc2Cl)cc1)c1ccccc1 (centres undefined),166 to 167
3,N#Cc1c(CF)nn(-c2c(Cl)cc(C(F)(F)F)cc2Cl)c1N,139 to 141
4,COC(=O)C(C(=O)O)=C1SC=CS1,48 to 51
5,Sc1c(Br)cc(Br)cc1Br,114 to 116
6,NC(c1ccccc1)c1ccc(C(N)c2ccccc2)cc1 (centres undefined),123 to 127
7,CC(C(=O)NCC(COC(=O)C(C)(C)C)Cc1ccc(C(C)(C)C)cc1)c1ccc(NS(C)(=O)=O)cc1 (centres undefined),97 to 100
8,Cc1nc2cnccc2n1-c1ccc(C2=Nc3ccccc3N(C)C(=O)C2)cc1,147
9,N#Cc1ccc2c(c1)C(c1ncnc3c1cnn3C1CCCC1)C(=O)N2 (centres undefined),> 300
10,Nc1c2c(nc3ccccc13)CCCC2N1CCOCC1 (centres undefined),215 to 217
11,CCOC(=O)C1=C(c2ccc(-n3nc(C)nc3C)cc2)NC(C)=C(C(=O)Nc2ccccn2)C1c1ccccc1Cl (centres undefined),130
12,CCCCCCOc1ccc2c(c1)C=C(C=O)CO2,36 to 38
13,CCCCCCCCCCCC(=O)C(C)(C)C(=O)Nc1c(OC)cc(OC)cc1OC,92 to 94
14,COC(=O)COc1ccc(OC2CCN(c3ccncc3)CC2)cc1,74 to 76
15,COc1ccc(-c2ccc(Br)cc2[N+](=O)[O-])cc1,130 to 131
16,NC1Cc2ccccc2N(c2ccccc2)C1=O (centres undefined),108 to 110
17,COC(CN1CCN(c2ccccc2)CC1)c1ccc(C)nc1 (centres undefined),93
18,Cc1ccccc1-c1c(CNC(=O)Nc2ccc(F)cc2F)oc2ccc(Cl)cc12,178 to 180
19,CC(C)(C)C(=O)Nc1c(F)cc(F)cc1Oc1ccc(C2(C#N)CCCC2)cc1,103 to 105
20,COC=C(C(=O)OC)N(C)c1nc(-c2ccc(Cl)cc2)cs1,104 to 105
21,COc1cc(OC)c(C(=O)C=Cc2ccc3c(c2)OCO3)c(OP(=O)(O)O)c1,79 to 80
22,CC1CN(C)CCC1(O)c1cc2ccccc2o1 (centres undefined),128 to 130

row,Structure (SMILES),melting point [°C]
1,COc1ccc(Br)cc1-c1cc(-c2cccc(Br)c2)no1,156
2,CCOC(=O)CNC(=O)[C@H](Cc1ccc(O)cc1)NC(=O)[C@H](CO)NC(=O)OCc1ccccc1,166 to 169
3,CP(=O)(CCC(=O)O)CCC(=O)O,172 to 174
4,CN1CCc2cc(Br)[nH]c2C(c2ccccc2)C1 (centres undefined),132 to 133
5,CCOc1ccc(C=CCCCCC(=O)O)cc1,62 to 63
6,COc1cc(C(=O)C=Cc2cc(-c3cccs3)ccc2OC)ccc1O,142 to 144
7,C#CCn1cc(C(=O)OCC)c(C(F)(F)F)c1,58
8,COc1ccc(-c2cccc(Cn3cncn3)c2)cc1Cl,78.2 to 78.4
9,O=C(N[C@@H](Cc1ccccc1)C(=O)N[C@@H](Cc1cncn1COCc1ccccc1)C(=O)O)C1CCCC1,195 to 197
10,O=S1(=O)NCNc2c(-c3ccccc3)cc(-c3ccccc3)cc21,222 to 225
11,O=C(NC1CCCCC1)OC1c2nccnc2C(=O)N1c1ccc2ccc(Cl)nc2n1 (centres undefined),264
12,CCC1C(C)=NN=C(c2ccc(OC)c(OC)c2)c2cc(Cl)ccc21 (centres undefined),185 to 187
13,Clc1cc2nc(CBr)c(CBr)nc2cc1Cl,154 to 156
14,COc1cc(OCc2ccccn2)ccc1/C=C/c1cc(/C=C/c2ccc3ccn(C(C)=O)c3c2)n[nH]1,182 to 187
15,O=C1NCCN(c2ccc(Cc3ccc(Cl)cc3)c(Cl)c2)N1,157 to 158
16,CC1Cc2cc3c(cc2C(c2ccc([N+](=O)[O-])cc2)=NN1c1nnn[nH]1)OCO3 (centres undefined),263 to 264
17,Cc1cnc2c(-c3nc[nH]n3)c(Cl)ccc2c1,274 to 276
18,CC(=O)SCCC(=O)Oc1ccc([N+](=O)[O-])cc1,71 to 73
19,N#Cc1cc([N+](=O)[O-])ccc1N1CCC(N2CCCCC2)CC1,134 to 135
20,c1ccc(N2CCN(c3nsc4ccccc34)CC2)cc1,260 to 262

# — a melting point compilation (Tetko et al.; mined from patent text by program, amines drawn as free bases though some values may be those of a salt)
